Assay results as given in patent publication US10766869B2, “Triazoles for the treatment of demyelinating dieases” (Vertex Pharmaceuticals Incorporated, priority 2015, dated 2020).
Like-named read-outs stand apart in the source and are kept apart here.

Test system: primary rat mixed cortical cells
Test: In vitro myelination assay (MBP positive myelin strands, fold myelin pixels above background)
Type: cell-based
Settings: Rattus norvegicus; for fold induction at 1 µM: 1.0 μM compound; for fold induction at 10 µM: 10.0 μM compound
How it was run: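 Compounds at 1.0 and 10.0 μM were incubated 14 days with dissociated P1 rat cortical cells, which were then fixed and immunostained for MBP. Myelination was scored as fold MBP myelin pixels per well over the no-compound baseline.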

[1] = relative to baseline of no added compound, read-out: Fold myelin pixels above background, 1.0 μM
[2] = relative to baseline of no added compound, read-out: Fold myelin pixels above background, 10.0 μM
[3] = relative to baseline of no added compound, read-out: Fold myelin pixels above background
[4] = read-out: Fold myelin pixels above background relative to baseline of no added compound

Row | SMILES | fold induction at 1 µM [1] | fold induction at 10 µM [2] | fold induction at 1 µM [3] | fold induction at 10 µM [3] | also measured
1 | Cc1cc(-n2cnc(Nc3cc(C4CC4)cc(N4CCN(C5COC5)CC4)c3)n2)nc(C)n1 [Compound 129, N-[3-cyclopropyl-5-[4-(oxetan-3-yl)piperazin-1-yl]phenyl]-1-(2,6-dimethylpyrimidin-4-yl)-1,2,4-triazol-3-amine] | ≤ 1 | ≤ 1 |  |  | 
2 | Cc1cc(Nc2ncn(-c3cc(F)cc(F)c3)n2)nc(N2CCN(C)CC2)c1 [Compound 731, N-[1-(3,5-difluorophenyl)-1,2,4-triazol-3-yl]-4-methyl-6-(4-methylpiperazin-1-yl)pyridin-2-amine] |  |  | 10 to 100 | ≤ 1 | 
3 | Cc1cc(Nc2ncn(-c3ccc(F)cc3)n2)cc(N2CC(N3CCOCC3)C2)c1 [Compound 606, 1-(4-fluorophenyl)-N-[3-methyl-5-(3-morpholinoazetidin-1-yl)phenyl]-1,2,4-triazol-3-amine] |  |  | 1 to 10 | 1 to 10 | 
4 | Cc1cc(Nc2ncn(-c3cc(F)cc(F)c3)n2)cc(N2CC(N3CCO[C@H](C)C3)C2)c1 (single isomer, unassigned) [Compound 696] |  |  | 10 to 100 | 1 to 10 | 
5 | COC(=O)N1CCCC(c2cc(C)cc(Nc3ncn(-c4ccccc4)n3)c2)C1 (stereo not drawn) [Compound 143, methyl 3-[3-methyl-5-[(1-phenyl-1,2,4-triazol-3-yl)amino]phenyl]piperidine-1-carboxylate] | 1000 to 10000 | 1000 to 10000 |  |  | 
6 | Cc1cc(Nc2ncn(-c3cc(F)cc(F)c3)n2)nc(N2CCCC(CO)C2)c1 (stereo not drawn) [Compound 815, [1-[6-[[1-(3,5-difluorophenyl)-1,2,4-triazol-3-yl]amino]-4-methyl-2-pyridyl]-3-piperidyl]methanol] |  |  |  |  | fold induction at 1 µM [4]: 1 to 10; fold induction at 10 µM [4]: 10 to 100
7 | Cc1cc(Nc2ncn(-c3cc(F)cc(F)c3)n2)c(F)c(OC2CCOC2)c1 (single isomer, unassigned) [Compound 1028, 1-(3,5-difluorophenyl)-N-(2-fluoro-5-methyl-3-tetrahydrofuran-3-yloxy-phenyl)-1,2,4-triazol-3-amine] |  |  |  |  | fold induction at 1 µM [4]: 10 to 100; fold induction at 10 µM [4]: 1 to 10
8 | CS(=O)(=O)c1cc(Nc2ncn(-c3cccc(F)c3)n2)cc(N2CCN(C3COC3)CC2)c1 [Compound 361, 1-(3-fluorophenyl)-N-[3-methylsulfonyl-5-[4-(oxetan-3-yl)piperazin-1-yl]phenyl]-1,2,4-triazol-3-amine] | 100 to 1000 | ≤ 1 |  |  | 
9 | CC1(N2CCN(c3cc(C(F)F)cc(Nc4ncn(-c5cc(F)cc(F)c5)n4)n3)CC2)COC1 [Compound 716, 4-(difluoromethyl)-N-[1-(3,5-difluorophenyl)-1,2,4-triazol-3-yl]-6-[4-(3-methyloxetan-3-yl)piperazin-1-yl]pyridin-2-amine] |  |  | 1 to 10 | 100 to 1000 | 
10 | Cc1cc(Nc2ncn(-c3ccccc3C#N)n2)cc(N2CCCC2)c1 [Compound 212, 2-[3-(3-methyl-5-pyrrolidin-1-yl-anilino)-1,2,4-triazol-1-yl]benzonitrile] | ≤ 1 | ≤ 1 |  |  | 
11 | Cc1cc(Nc2ncn(-c3ccccc3)n2)cc(N2CC(CC(C)C)N3CCC[C@@H]3C2)c1 (stereo partly drawn) [Compound 152, N-[3-[(8aR)-4-isobutyl-3,4,6,7,8,8a-hexahydro-1H-pyrrolo[1,2-a]pyrazin-2-yl]-5-methyl-phenyl]-1-phenyl-1,2,4-triazol-3-amine] | ≤ 1 | ≤ 1 |  |  | 
12 | Cc1cc(Nc2ncn(-c3cc(F)cc(F)c3)n2)cc(N2CCC(F)CC2)n1 [Compound 457, N-[1-(3,5-difluorophenyl)-1,2,4-triazol-3-yl]-2-(4-fluoro-1-piperidyl)-6-methyl-pyridin-4-amine] |  |  | 1000 to 10000 | 1000 to 10000 | 
13 | CCCc1cc(Nc2ncn(-c3ccc(F)c(F)c3)n2)cc(N2CCN(C3COC3)CC2)c1 [Compound 559, 1-(3,4-difluorophenyl)-N-[3-[4-(oxetan-3-yl)piperazin-1-yl]-5-propyl-phenyl]-1,2,4-triazol-3-amine] |  |  | 100 to 1000 | 10 to 100 | 
14 | CC(C)(C)c1cc(Nc2ncn(-c3ccccc3)n2)cc(N2CCN(C3COC3)CC2)c1 [Compound 376, N-[3-tert-butyl-5-[4-(oxetan-3-yl)piperazin-1-yl]phenyl]-1-phenyl-1,2,4-triazol-3-amine] | 100 to 1000 | 1 to 10 |  |  | 
15 | N#Cc1cc(Nc2ncn(-c3ccccc3)n2)cc(N2CCOCC2)c1 [Compound 608, 3-morpholino-5-[(1-phenyl-1,2,4-triazol-3-yl)amino]benzonitrile] |  |  | 10 to 100 | 1 to 10 | 
16 | Cc1cc(Nc2ncn(-c3ccc(C(F)(F)F)cc3)n2)cc(N2CCCC2)c1 [Compound 356, N-(3-methyl-5-pyrrolidin-1-yl-phenyl)-1-[4-(trifluoromethyl)phenyl]-1,2,4-triazol-3-amine] | ≤ 1 | 10 to 100 |  |  | 
17 | Cc1cc(Nc2ncn(-c3ccccc3)n2)cc(N2CC3(COC3)C2)c1 [Compound 7, N-[3-methyl-5-(6-oxa-2-azaspiro[3.3]heptan-2-yl)phenyl]-1-phenyl-1,2,4-triazol-3-amine] | 1000 to 10000 | 1000 to 10000 |  |  | 
18 | Cc1cc(Nc2ncn(-c3cc(F)cc(F)c3)n2)cc(N2CCN(C3CC(F)(F)C3)CC2)c1 [Compound 453, N-[3-[4-(3,3-difluorocyclobutyl)piperazin-1-yl]-5-methyl-phenyl]-1-(3,5-difluorophenyl)-1,2,4-triazol-3-amine] |  |  | 10 to 100 | 1000 to 10000 | 
19 | Cc1cc(Nc2ncn(-c3cc(F)cc(F)c3)n2)cc(OC2CCCOC2)c1 (stereo not drawn) [Compound 635, 1-(3,5-difluorophenyl)-N-(3-methyl-5-tetrahydropyran-3-yloxy-phenyl)-1,2,4-triazol-3-amine] |  |  | 10 to 100 | 1 to 10 | 
20 | CC1CCN(c2cc(Nc3ncn(-c4ccc(F)c(F)c4)n3)cc(C3CC3)n2)CC1 [Compound 202, 2-cyclopropyl-N-[1-(3,4-difluorophenyl)-1,2,4-triazol-3-yl]-6-(4-methyl-1-piperidyl)pyridin-4-amine] | 100 to 1000 | 10 to 100 |  |  | 
21 | Cc1cc(Nc2ncn(-c3cc(F)cc(F)c3)n2)cc(N2CC(F)(CO)C2)c1 [Compound 1079, [1-[3-[[1-(3,5-difluorophenyl)-1,2,4-triazol-3-yl]amino]-5-methyl-phenyl]-3-fluoro-azetidin-3-yl]methanol] |  |  |  |  | fold induction at 1 µM [4]: 10 to 100; fold induction at 10 µM [4]: ≤ 1
22 | Brc1cc(Nc2ncn(-c3ccccc3)n2)cc(N2CCOCC2)c1 [Compound 168, N-(3-bromo-5-morpholino-phenyl)-1-phenyl-1,2,4-triazol-3-amine] | 1000 to 10000 | 1000 to 10000 |  |  | 
23 | Cc1cc(NCC2CCCC2N2CCOCC2)cc(Nc2ncn(-c3cc(F)cc(F)c3)n2)c1 (stereo not drawn) [Compound 895, N1-[1-(3,5-difluorophenyl)-1,2,4-triazol-3-yl]-5-methyl-N3-[(2-morpholinocyclopentyl)methyl]benzene-1,3-diamine] |  |  |  |  | fold induction at 1 µM [4]: 10 to 100; fold induction at 10 µM [4]: 1 to 10
24 | Fc1cc(F)cc(-n2cnc(Nc3cc(C(F)(F)F)cc(N4CCN([C@@H]5CCOC5)CC4)n3)n2)c1 (single isomer, unassigned) [Compound 672] |  |  | 1 to 10 | 1 to 10 | 
